Laboratory results published in US20240058417A1, “AMELIORATION AND TREATMENT OF INFARCTION DAMAGE” (priority 2021, published 2024).

Legend:
[1] = tested on: DOX-induced cardiotoxicity; assay: DOX treatment in vivo (cardiotoxicity, 42 days)
[2] = tested on: human cardiomyocytes; assay: DOX-induced cell death and mitochondrial damage in human cardiomyocytes (HCM); conditions: 10 μM DOX
[3] = tested on: myocardial I/R injury; assay: in vivo murine myocardial I/R: infarct size, troponin, apoptosis, cardiac function; parameters: species or system mouse; conditions: wild-type mice
[4] = tested on: BNIP3/BAX; assay: in vivo murine myocardial I/R: necrotic and apoptotic signaling in the area at risk; parameters: species or system mouse; conditions: AAR
[5] = target: recombinant BNIP3 (Mus musculus, UniProt O55003); assay: BNIP3/peptide microarray (truncation and substitution analysis); type: binding; conditions: FIG. 3H
Chain of recombinant BNIP3 (O55003 whole entry, the tested form may be a part): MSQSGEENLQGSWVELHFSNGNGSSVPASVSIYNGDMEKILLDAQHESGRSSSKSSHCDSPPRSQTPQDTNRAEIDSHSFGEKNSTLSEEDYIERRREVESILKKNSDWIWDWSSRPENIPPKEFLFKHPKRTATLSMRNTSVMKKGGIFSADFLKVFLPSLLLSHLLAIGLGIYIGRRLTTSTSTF

[6] = target: T1, Recombinant Mouse BCL2/adenovirus E1B 19 kDa protein interacting protein 3 (Bnip3) (mouse, UniProt O55003 1-187, labelled with DyLight 650 (Dy650) where used as the soluble probe); assay: N-terminal sequence truncation analysis, peptide microarray with rBNIP3
T1 construct: Bought recombinant protein; also called rBNIP3; recombinant BNIP3
T1 sequence (O55003 whole entry, the tested form may be a part): as above

[7] = target: T1, Recombinant Mouse BCL2/adenovirus E1B …; assay: BNIP3/peptide microarray, labelled rBNIP3 on immobilised truncation peptides

Molecule: COc1cccc2c1C(=O)c1c(O)c3c(c(O)c1C2=O)C[C@@](O)(C(=O)CO)C[C@@H]3O[C@H]1C[C@H](N)[C@H](O)[C@H](C)O1 [DOX, Doxorubicin]
- heart rate ([1]; DOX alone or in combination with PepB): unaffected
- CQ mediated LC3II/I increase (autophagic flux) ([1]; additional chloroquine treatment): abolished
- basal respiration ([1]; cardiac mitochondria, Seahorse): affected
- maximal respiration ([1]; cardiac mitochondria, Seahorse): affected
- respiratory reserve capacity (OCR) ([1]; cardiac mitochondria, Seahorse): inhibited
- BNIP3 accumulation ([1]; mouse, in vivo): triggered
- cardiomyocyte death (cardiac troponin I levels) ([1]; mouse, in vivo): dramatic positive effect
- p62 accumulation ([1]; mouse, in vivo): triggered
- mPTP opening [2]: activated
- mitochondrial ROS generation ([2]; four and 22 hours): triggered
- mitochondrial membrane potential ([2]; four and 22 hours): disrupted
- mitochondrial calcium ion overload ([2]; four hours): induced

Molecule: GRKKRRQRRRPQLDAQHESGRSSSKSSHCDSP [TAT-BNIP3-20C, control peptide, HIV-1 PTD attached to BNIP3 amino acids 42-61]
- infarct size compared with vehicle treatment ([3]; 5 minutes before reperfusion, 24 h reperfusion): no difference was observed

Molecule: GRKKRRQRRRPQMSQSGEENLQGSWVELHFSN [TAT-BNIP3-20A, HIV-1 PTD attached to 20 amino acids derived from BNIP3 1-20]
- reduction in infarct size relative to vehicle ([3]; peptide 5 minutes before reperfusion, 30 min ischemia/24 h reperfusion): 41%
- caspase-3 activity [4]: markedly reduced
- BNIP3 translocation to the mitochondria ([4]; wild-type mice, 10 minutes reperfusion): prevented

Molecule: VELHFSN
- luminescence in N-terminal truncation analysis [5]: substantially higher luminescence

B1: VELHFSN (peptide)
peptide: VELHFSN
notes: N-terminal truncation of BNIP3 1-20 on the peptide microarray
- binding result [6]: binds

B2: WVELHFSN (BNIP3 amino acid residues 13-20) (peptide)
peptide: WVELHFSN
notes: Immobilised on peptide microarrays (JPT); also called truncated peptide
- fold signal increase compared to the 20 residues of BNIP3-20A peptide [7]: 14 fold
